Values after ≈ are worked out from the molar mass of the structure shown.
Molecular target: T1, Pyruvate kinase PKM (Homo sapiens, UniProt P14618)
T1 sequence (P14618 whole entry): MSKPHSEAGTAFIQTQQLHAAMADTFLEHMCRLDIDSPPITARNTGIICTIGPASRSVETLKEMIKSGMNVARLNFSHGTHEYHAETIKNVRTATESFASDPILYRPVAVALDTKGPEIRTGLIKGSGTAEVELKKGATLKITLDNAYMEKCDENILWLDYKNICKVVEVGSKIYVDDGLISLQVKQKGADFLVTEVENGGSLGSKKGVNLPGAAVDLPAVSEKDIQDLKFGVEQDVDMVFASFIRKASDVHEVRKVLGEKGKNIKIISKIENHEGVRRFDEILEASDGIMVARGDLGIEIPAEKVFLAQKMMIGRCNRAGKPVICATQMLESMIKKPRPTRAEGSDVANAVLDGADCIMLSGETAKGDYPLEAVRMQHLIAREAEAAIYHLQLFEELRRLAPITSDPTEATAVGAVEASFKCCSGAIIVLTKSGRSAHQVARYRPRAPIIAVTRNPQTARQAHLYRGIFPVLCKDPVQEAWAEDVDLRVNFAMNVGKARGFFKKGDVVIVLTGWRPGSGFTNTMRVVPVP
Conditions: not given; call rule not given here
In the case of `CC(O)c1cc2c(s1)c1cnn(Cc3ccccc3F)c(=O)c1n2C` (stereo unspecified), the AC50 is reported as 136 nM. Work on `Cc1ccc(Cn2ncc3c4sc(C)cc4n(C)c3c2=O)c(F)c1` yielded an AC50 of 108 nM. `COc1ccc(Cn2ncc3c4sc(C)cc4n(C)c3c2=O)cc1F` showed an AC50 of 225 nM. For `CC(=O)Nc1cc2c(s1)c1cnn(Cc3ccccc3F)c(=O)c1n2C`, the AC50 was over 25000 nM. `COc1cccc(Cn2ncc3c4sc([S+](C)[O-])cc4n(C)c3c2=O)c1` (stereo unspecified) showed an AC50 of 73 nM. Molecule `Cn1c2cc(B(O)O)sc2c2cnn(Cc3ccccc3F)c(=O)c21` has an AC50 of over 10000 nM. For `CCn1c2cc(C)sc2c2cnn(Cc3ccccc3F)c(=O)c21`, the AC50 was 5900 nM. `Cn1c2cc([S+](C)[O-])sc2c2cnn(Cc3cccc(O)c3)c(=O)c21` (stereo unspecified) gave an AC50 of 130 nM. Molecule `Cn1c2ccsc2c2ncn(Cc3ccccc3F)c(=O)c21` has an AC50 of over 35000 nM. Work on `Cc1cc2c(s1)c1c(C)nn(Cc3ccccc3F)c(=O)c1n2C` yielded an AC50 of over 30000 nM. Work on `CCCCCn1ncc2c3sc(C)cc3n(C)c2c1=O` yielded an AC50 of over 35000 nM. `Cc1cc2c(s1)c1cnn(Cc3ccc(C(F)(F)F)cc3F)c(=O)c1n2C` gave an AC50 of over 15000 nM.

Molecular target: T1, Pyruvate kinase PKM
Conditions: not given
Remark: another data set of the same source
In the case of `Cc1cc2c(s1)c1cnn(Cc3ccccc3F)c(=O)c1n2C(C)C`, the AC50 is reported as “Not Active”. In the case of `Cc1cc2[nH]c3c(=O)n(Cc4ccccc4F)ncc3c2s1`, the AC50 is reported as “Not Active”. With `Cn1c2cc(S(C)(=O)=O)sc2c2cnn(Cc3ccccc3F)c(=O)c21` the AC50 was “Not Active”. In the case of `Cc1cc2c(s1)c1cnn(-c3ccccc3)c(=O)c1n2C`, the AC50 is reported as “Not Active”.

Tested on: not listed separately
Assay: Aqueous solubility in DMSO at pH 7.4 by quantitative nitrogen detection assay
Assay type: physicochemical
Conditions: aqueous solution with DMSO
Work on `COc1cccc(Cn2ncc3c4sc([S+](C)[O-])cc4n(C)c3c2=O)c1` (stereo unspecified) yielded a solubility kinetic of 37.4 µg/mL (≈ 96.5 µM). `Cn1c2cc([S+](C)[O-])sc2c2cnn(Cc3cccc(N)c3)c(=O)c21` (stereo unspecified) gave a solubility kinetic of 29.6 µg/mL (≈ 79.5 µM). In the case of `Cn1c2cc([S+](C)[O-])sc2c2cnn(Cc3ccccc3F)c(=O)c21` (stereo unspecified), the solubility kinetic is reported as 4.4 µg/mL (≈ 11.7 µM). With `Cn1c2cc([S+](C)[O-])sc2c2cnn(Cc3cccc(O)c3)c(=O)c21` (stereo unspecified) the solubility kinetic was 16.9 µg/mL (≈ 45.3 µM). Molecule `Cc1cc2c(s1)c1cnn(Cc3ccccc3F)c(=O)c1n2C` has a solubility kinetic of under 0.2 µg/mL.

Reference: ChEMBL document CHEMBL1155492, “Evaluation of thieno[3,2-b]pyrrole[3,2-d]pyridazinones as activators of the tumor cell specific M2 isoform of pyruvate kinase” (Bioorg Med Chem Lett, 2010)
